Assay results taken from patent publication EP0980354B1, “VITAMIN D3 ANALOGS WITH BIS C-20 SIDE CHAINS” (priority 1997, dated 1998).

Tests used:
parathyroid hormone = experiment: Secondary hyperparathyroidism in the 7/8 nephrectomy rat renal insufficiency model (serum PTH, serum calcium); format: in vivo, Female Sprague Dawley rats; design: Final Ca Levels (mg/ml): unit not given here; settings: for Final Ca Levels (mg/ml) / PTH pg/ml T=1-T=0: 7 days, 7/8 nephrectomized rats, serum
Text: • Compound of Formula Ia • 1,25(OH)2 vitamin D3 (control) • Vehicle - Miglyol 812
Female Sprague Dawley rats were anesthesized, their right kidney removed and 2-3 branches of the left renal artery were ligated to achieve 7/8 nephrectomy. They were placed on a high phosphorous diet (0.6% Ca and 0.8 phosphorous). Approximately 3-6 weeks after surgery, rats were bled to screen serum PTH levels and rats with PTH levels between 100-500 pg/ml were selected for the study.
There was a pre-bleed (T=0) and each group was dosed daily for seven days by oral gavage with either the compound of Formula Ia (10, 1 or 0.1 µg/kg/day), vehicle control or […] positive control. Compounds were predissolved in ethanol and diluted with vehicle (Miglyol 812) followed by evaporation of the ethanol.
After the last day of dosing, the animals were bled again (T=1) and sacrificed. Serum PTH assays were done with Nichols Institute Diagnostic Kit #40-2240. Serum calcium assays were done with Sigma Diagnostic Kit #587 with o-cresophthalein. Serum creatinine assays were done with Sigma Diagnostic Kit #1600-320 with ammonium molybdate.

MCF-7 cells = experiment: Cell proliferation assay in MCF-7 breast cancer cells (MTT); format: cell-based, human; settings: for IC50: MCF-7 cells, 7 days of culture, MTT
Protocol: MCF-7 cells are human mammary carcinoma cells that are positive for estrogen receptors. The potential activity of vitamin D3 analogs against breast cancer was assessed from inhibition of proliferation of MCF-7 cells in culture.
MCF-7 cells were plated at 5000 cells/well in 96-well plates and incubated at 37°C in 5% CO2/95% air in Dulbecco's Modified Eagle Medium containing 10% fetal bovine serum 700 nM insulin, 2 mM glutamine, 0.1 mM MEM non-essential amino acids and 1 mM sodium pyruvate. Stock solutions of vitamin D3 analogs were prepared at a concentration of 10 mM in absolute ethanol and stored at -20°C under argon. One day after plating, MCF-7 cells were refed with either control medium or medium containing varying concentrations of the vitamin D3 analog.
For each vitamin D3 analog, the IC50 value was determined from a graph relating the optical density at 570 nm to the concentration used. The IC50 value was defined as the concentration of the vitamin D3 analog corresponding to half-maximal reduction in 570 nm absorbance.

ZR-75 cells = experiment: Cell proliferation assay in ZR-75 breast cancer cells (MTT); format: cell-based, human; settings: for IC50: ZR-75 cells, 10 days of culture, MTT
Protocol: ZR-75 cells are human mammary carcinoma cells that are positive for estrogen receptors. The potential activity of vitamin D3 analogs against breast cancer was assessed from inhibition of proliferation of ZR-75 cells in culture.
ZR-75 cells were plated at 12,500 cells/well in 24-well plates and incubated at 37°C in 5% CO2/95% air in RPMI medium containing 10% fetal bovine serum and 2 mM glutamine. Stock solutions of vitamin D3 analogs were prepared at a concentration of 10 mM in absolute ethanol and stored at -20°C under argon. One day after plating, ZR-75 cells were refed with either control medium or medium containing varying concentrations of the vitamin D3 analog.
The IC50 value was defined as the concentration of the vitamin D3 analog corresponding to half-maximal reduction in 570 nm absorbance.

[1] = system: postmenopausal osteoporosis; settings: 0.25 microgram twice daily, after 3 years, mild to moderate disease, versus elemental calcium 1000 mg/day; cited from earlier work

Molecule	Final Ca Levels (mg/ml) (parathyroid hormone; 0.1 µg/kg/day po)	PTH pg/ml T=1-T=0 (parathyroid hormone; 0.1 µg/kg/day po) [pg/mL]	Final Ca Levels (mg/ml) (parathyroid hormone; 1 µg/kg/day po)	PTH pg/ml T=1-T=0 (parathyroid hormone; 1 µg/kg/day po) [pg/mL]	Final Ca Levels (mg/ml) (parathyroid hormone; 10 µg/kg/day po)	PTH pg/ml T=1-T=0 (parathyroid hormone; 10 µg/kg/day po) [pg/mL]	suppressing the elevated levels of parathyroid hormone (parathyroid hormone; compared with 1,25(OH)2 vit. D3, summary in words)	elevated calcium levels (parathyroid hormone; summary in words)	IC50 (MCF-7 cells) [nM]	potency relative to 1,25-dihydroxy-cholecalciferol in inhibition of MCF-7 breast cells growth (MCF-7 cells; ratio of IC50 values)	IC50 (ZR-75 cells) [nM]	potency relative to 1,25-dihydroxy-cholecalciferol in inhibition of ZR-75 breast cells growth (ZR-75 cells; ratio of IC50 values)	IC50 (MCF-7 cells; Homo sapiens, MCF7, 168 h) [nM]	IC50 (ZR-75 cells; Homo sapiens, ZR75, 240 h) [nM]	lower rate of new vertebral fractures [1] [fold]
(1α,3β,5Z,7E)-21-(3-hydroxy-3-methylbutyl)-9,10-Secocholesta-5,7,10, (19)-triene-1,3,25-triol [Formula Ia]	10.20	112	10.35	-124	11.97	-132	more effective than 1,25(OH)2 vit. D3	without causing elevated calcium levels	0.8	approximately 50 times	0.3	more than 40 times			
C=C1/C(=C\C=C2/CCC[C@]3(C)[C@@H]([C@H](C)CCCC(C)(C)O)CC[C@@H]23)C[C@@H](O)C[C@@H]1O [1,25(OH)2 vit. D3, 1,25-dihydroxyvitamin D3, reference compound]		-66											40	13	3
